{"source": "patent US11167007B2", "about": "“FOXM1 modulators and uses thereof” (City of Hope, priority 2016, dated 2021)", "key": {"FOXM1/β-catenin": {"biological_target": "T1, FOXM1/β-catenin (Mus musculus, UniProt O08696)", "T1 construct": "endogenous in cells; host or cells: GT1-7", "T1 sequence (O08696 1-760)": "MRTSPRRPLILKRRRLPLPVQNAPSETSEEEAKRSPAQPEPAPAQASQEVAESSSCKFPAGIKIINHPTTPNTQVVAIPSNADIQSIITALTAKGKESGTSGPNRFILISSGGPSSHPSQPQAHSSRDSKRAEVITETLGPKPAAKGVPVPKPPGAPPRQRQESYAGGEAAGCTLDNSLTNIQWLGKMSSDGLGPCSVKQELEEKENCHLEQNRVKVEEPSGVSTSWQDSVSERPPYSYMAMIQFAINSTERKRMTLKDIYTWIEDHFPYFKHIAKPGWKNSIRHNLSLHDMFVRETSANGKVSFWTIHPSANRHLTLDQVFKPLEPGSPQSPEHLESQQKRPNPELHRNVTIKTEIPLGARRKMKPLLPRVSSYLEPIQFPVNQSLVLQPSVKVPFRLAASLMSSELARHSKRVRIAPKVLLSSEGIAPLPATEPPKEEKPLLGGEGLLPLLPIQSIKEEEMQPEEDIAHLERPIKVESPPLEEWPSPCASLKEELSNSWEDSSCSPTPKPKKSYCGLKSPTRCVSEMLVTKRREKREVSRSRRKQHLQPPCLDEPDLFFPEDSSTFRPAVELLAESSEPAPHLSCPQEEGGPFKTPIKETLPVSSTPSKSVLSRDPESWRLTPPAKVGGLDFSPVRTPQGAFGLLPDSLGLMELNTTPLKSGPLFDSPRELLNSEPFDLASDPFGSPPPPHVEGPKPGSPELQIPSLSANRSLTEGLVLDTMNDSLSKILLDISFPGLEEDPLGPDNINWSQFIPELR", "assay": "Co-immunoprecipitation of β-catenin from GT1-7 cell lysates, Western blot for FOXM1", "type": "cell-based, murine", "details": "FIG. 3E", "description": "Immunoprecipitation (IP). The co-IP assay was performed as described by Zhang et al, Cancer Cell, 20(4):427-42 (2011). In brief, cells were lysed on ice for 20 minutes in co-IP buffer containing 10 mmol/L Hepes (pH8), 300 mmol/L NaCL, 0.1 mmol/L EDTA, 20% glycerol, 0.2% NP-40 and protease inhibitor (Roche Diagnostics). Lysate was centrifuged at 10000 g for 10 minutes at 4° C. Lysate was incubated with primary antibody (β-catenin: rabbit, 9562, Cell Signaling Technology) overnight at 4° C. followed by incubation with 30 uL of Protein A/G beads for 2 hours at 4° C. Collected protein complexes were washed and analyzed by Western blotting.\nWestern Blot. Cell lysates was separated on a 6% SDS page gel and transferred to a nitrocellulose membrane. The membrane was blocked for one hour in 5% skim milk dissolved in TBS-T and probed with the following antibodies ([…]): FoxM1 (rabbit, GeneTex), AR: 441 (mouse, Santa Cruz Biotechnology), β-catenin (rabbit 9562, Cell Signaling Technology), p84 (mouse, GeneTex) and actin (mouse, Santa Cruz Biotechnology). Horse radish peroxidase linked secondary antibodies were used along with ECL reagents for visualization. Western blots were quantified using Quantity One analysis software (BioRad).\nCo-immunoprecipitation confirmed a direct interaction between β-catenin and FOXM1 as well as between β-catenin and AR (FIG. 3E). […]"}, "AR-FOXM1 co-localization": {"test_system": "AR-FOXM1 co-localization", "type": "cell-based, murine", "details": "GT1-7 CARY cells, 24 hours, FIG. 4B", "method": "Cells were fixed in 2% paraformaldehyde prior to incubating with primary antibody (FOXM1: mouse, AbCam) overnight at 4° C. Following washing, secondary antibody (Alexa 954 goat anti-mouse, Invitrogen) was applied for 45 minutes at 37° C. After washing, slides were mounted and analyzed using a confocal microscope (Zeiss). The coloc-2 Image J plug-in (Fiji) was used to quantify co-localization of AR and FOXM1 from three independent samples using both Li's Intensity Correlation Quotient (ICQ) and Manders split coefficients co-localization values. One-way analysis of variance was applied to determine statistical significant among groups, where p<0.05 was considered significant."}}, "data": [{"compound": "C=C(NC(=O)C(=C)NC(=O)c1csc(C2=N[C@@H]3c4csc(n4)[C@H]4NC(=O)c5csc(n5)[C@H]([C@](C)(O)[C@@H](C)O)NC(=O)[C@H]5CSC(=N5)/C(=C/C)NC(=O)[C@H]([C@@H](C)O)NC(=O)c5csc(n5)[C@]3(CC2)NC(=O)[C@H](C)NC(=O)C(=C)NC(=O)[C@H](C)NC(=O)[C@H]([C@@H](C)CC)N[C@@H]2C=Cc3c([C@H](C)O)cc(nc3[C@H]2O)C(=O)O[C@@H]4C)n1)C(N)=O", "note": "[thiostrepton]", "values": [{"measurement": "amount of FOXM1 pulled down with β-catenin", "setting": "FOXM1/β-catenin", "result": "reduced"}, {"measurement": "association (co-localization) between FOXM1 and AR", "setting": "AR-FOXM1 co-localization", "result": "not significantly affected"}]}]}
